Reference: PMC9225989 (Signal Transduction and Targeted Therapy, 2022)

Molecular target: T1, cannabinoid receptor 1 (CB1R, hCB1R) (Homo sapiens, UniProt P21554)
T1 construct: gene CNR1; purified human CB1R (hCB1R) protein that is close to its full-length (473 amino acids)
Assay: biochemical
Assay type: binding

T1 sequence (P21554 whole entry): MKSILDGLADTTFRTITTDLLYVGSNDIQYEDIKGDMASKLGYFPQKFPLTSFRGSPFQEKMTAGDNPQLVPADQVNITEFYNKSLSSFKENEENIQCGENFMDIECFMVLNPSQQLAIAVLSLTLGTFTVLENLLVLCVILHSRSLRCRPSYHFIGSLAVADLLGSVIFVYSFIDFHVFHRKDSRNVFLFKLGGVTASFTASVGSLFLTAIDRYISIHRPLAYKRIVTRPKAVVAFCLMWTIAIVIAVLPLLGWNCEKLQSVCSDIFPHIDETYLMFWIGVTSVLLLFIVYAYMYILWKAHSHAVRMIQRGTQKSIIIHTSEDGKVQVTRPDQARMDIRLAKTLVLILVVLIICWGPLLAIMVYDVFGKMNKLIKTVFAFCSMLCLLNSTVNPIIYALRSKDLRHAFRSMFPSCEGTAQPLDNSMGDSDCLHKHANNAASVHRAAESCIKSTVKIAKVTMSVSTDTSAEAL

SMILES	Kd
CN1CCN(C2=Nc3cc(Cl)ccc3Nc3ccccc32)CC1 [Clz, clozapine]	2.65 nM
Cc1cc2c(s1)Nc1ccccc1N=C2N1CCN(C)CC1 [Olz, olanzapine]	2.53 nM
